Data reported in US20210369691A1, “METHODS AND COMPOSITIONS FOR IMPROVING BONE MARROW HEMATOPOIETIC FUNCTIONS” (Sun Yat-Sen University, priority 2018, published 2021).

Tests used:
Format in all cases: in vivo, mice
[1] = Survival after serial 5FU challenges every 7 days with ABC294640 every other day; conditions: vs control, FIG. 30
Protocol: FIG. 30. illustrates the survival of C57BL/6J mice after serious 5FU treatment every 7 days and ABC294640 treatment every other day (n=10 mice group).
Repopulation analyses was also performed to investigate whether ABC294640 treatment functionally promotes HSC regeneration after chemotherapeutic stress.

white blood cells [2] = experiment: White blood cell recovery in peripheral blood after X-ray radiation; conditions: after X-ray 450 cGy; ABC294640 10 mg/kg i.p. every other day; days 0, 1, 7, 14; vs solvent control; FIG. 7
Protocol: Preparation of SphK2 inhibitors was as described in Example 4. Twelve 8-week-old C57 mice purchased from Laboratory Animal Center, Sun Yat-sen University were selected and divided evenly into two groups. The mice were treated with X-ray radiation at a dose of 450 cGy. The injection of the inhibitor ABC294640 and the solvent control solution was as described in Example 4. Intraperitoneal injection of the inhibitor or the solvent control solution started from the day after the X-ray radiation, followed by injections once every other day, at a dose of 10 mg/kg, until the end of the experiment. Periphery blood (PB) of each mouse was separately collected to determine white blood cell (WBC) counts 0, 1, 7 and 14 days after X-ray radiation. T-test analysis was carried out using Graphpad6.0, and differences were considered statistically significant when P<0.05.

white blood cells [3] = experiment: White blood cell recovery after bone marrow transplantation; conditions: 7-35 days after bone marrow transplantation; ABC294640 10 mg/kg every other day; vs solvent control
Protocol: (§1) Twenty-five 8-week-old C57 mice (purchased from Laboratory Animal Center, Sun Yat-sen University) were selected and kept in a specific pathogen free (SPF) environment. 5 mice were randomly selected and sacrificed by cervical dislocation. Femurs and tibias were taken and the bone marrow was obtained from the bone marrow cavity with an 1 ml syringe. Bone marrow was dispersed to form a single cell suspension and lysed with red blood cell lysis buffer for 2 min to remove red blood cells, followed by filtering through a 70 μm filter screen to obtain a single cell suspension. The other 20 mice were treated with X-ray radiation at a dose of 900 cGy, and were injected with 400,000 of the prepared bone marrow single cell suspension via tail vein, respectively. Then, the recipient mice were divided evenly into 2 groups, and mice of the ABC294640 treatment group were subjected to intraperitoneal injection of ABC294640 every other day. Mice in the control group was injected with a solvent solution control (1:1 of physiological saline: PEG400) solution. ABC294640 was purchased from Selleck and dissolved in dimethyl sulfoxide (DMSO), and diluted with a mixture solution of polyethylene glycol 400 (PEG400) and physiological saline (1:1) to be administered at a dose of 10 mg/kg.
(§2) Preparation of SphK2 inhibitors was as described in Example 10. […]

platelets = experiment: Platelet recovery after bone marrow transplantation; conditions: 7-35 days after bone marrow transplantation; ABC294640 10 mg/kg every other day; vs solvent control
Protocol: as §1, §2

hematopoietic stem cells = experiment: Hematopoietic stem cell number after bone marrow transplantation; conditions: 35 days after bone marrow transplantation (900 cGy); ABC294640 10 mg/kg i.p. every other day; **P<0.01; FIG. 10
Protocol: as §1, with “solution. […] Statistical quantification” for “solution. ABC294640”, “was performed to determine the number of hematopoietic stem cells using the molecular marker system Lin-Sca-1+c-Kit+CD150+CD48−” for “was purchased from Selleck and dissolved”, “in combination” for “in dimethyl sulfoxide (DMSO), and diluted”, “with flow cytometry. […]” for “with a mixture solution of polyethylene glycol 400 (PEG400) and physiological saline (1:1) to be administered at a dose of 10 mg/kg.”

O=C(NCc1ccncc1)C12CC3CC(C1)CC(c1ccc(Cl)cc1)(C3)C2 [ABC294640, 3-(4-chloro-phenyl)-adamantane-1-carboxylic acid (pyridin-4-ylmethyl)-amide]
survival [1]: notably increased survival | number of white blood cells from the peripheral blood (white blood cells [2]): significantly increased | number of white blood cells in the peripheral blood (white blood cells [3]): significantly (*P<0.05, **P<0.01 and ***P<0.001) increased | number of platelets in the peripheral blood (platelets): significantly (*P<0.05, and ***P<0.001) increased | number of hematopoietic stem cells in bone marrow (hematopoietic stem cells): increased remarkably
